Source: patent EP0559893A1, “XANTHINE DERIVATIVE” (priority 1990, dated 1992)
pKi: −log10 of the molar value.

Columns and labels:
dd male mice = experiment: Acute toxicity test; type: in vivo; settings: oral administration; mortality observed 7 days after the administration
Text: Three dd male mice having a weight of 20 ± 1 g were used for one group. A test compound was orally administered to the mice.
The mortality was observed 7 days after the administration to determine the minimum lethal dose (MLD).

Adenosine A₁ receptor = target: T1, Adenosine A₁ receptor (Cavia porcellus, UniProt P47745); experiment: Adenosine A1 receptor binding test (3H-CHA binding); settings: for inhibition at 100 µM: read-out: A1 Receptor Inhibition (%) 10^-4 M; for inhibition at 10 µM: read-out: A1 Receptor Inhibition (%) 10^-5 M
T1 sequence (P47745 1-326): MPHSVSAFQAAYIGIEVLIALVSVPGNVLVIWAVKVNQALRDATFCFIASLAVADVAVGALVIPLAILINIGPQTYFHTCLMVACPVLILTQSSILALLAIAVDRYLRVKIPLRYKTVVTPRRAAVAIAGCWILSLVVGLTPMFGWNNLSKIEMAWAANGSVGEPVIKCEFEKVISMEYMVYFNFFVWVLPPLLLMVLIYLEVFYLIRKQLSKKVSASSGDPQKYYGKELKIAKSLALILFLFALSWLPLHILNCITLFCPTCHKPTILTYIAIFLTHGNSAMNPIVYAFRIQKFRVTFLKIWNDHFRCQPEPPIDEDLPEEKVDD

Adenosine A₂ receptor = Adenosine A₂ receptor (Rattus norvegicus, UniProt P30543); experiment: Adenosine A2 receptor binding test (3H-NECA binding); settings: for inhibition at 100 µM: read-out: A2 Receptor Inhibition (%) 10^-4 M; for inhibition at 10 µM: read-out: A2 Receptor Inhibition (%) 10^-5 M; for Ratio of Affinity with Receptor (A2 /A1 ): A2 (rat corpus striatum) versus A1 (guinea pig cerebrum)
Adenosine A₂ receptor, sequence (P30543 whole entry): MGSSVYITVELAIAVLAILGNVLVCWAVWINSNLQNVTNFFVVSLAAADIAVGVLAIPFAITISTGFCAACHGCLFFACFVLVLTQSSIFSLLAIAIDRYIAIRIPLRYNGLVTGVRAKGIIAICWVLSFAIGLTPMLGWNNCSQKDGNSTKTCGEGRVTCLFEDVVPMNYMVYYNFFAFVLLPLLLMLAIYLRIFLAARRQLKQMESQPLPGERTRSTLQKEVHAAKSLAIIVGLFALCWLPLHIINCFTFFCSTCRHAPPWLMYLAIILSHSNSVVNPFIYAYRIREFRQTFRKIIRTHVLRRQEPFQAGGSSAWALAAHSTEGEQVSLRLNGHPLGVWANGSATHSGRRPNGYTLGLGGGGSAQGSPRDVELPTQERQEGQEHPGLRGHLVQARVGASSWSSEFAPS

ddY male mice = experiment: Mouse locomotor activity; type: in vivo; settings: po, enhancement of locomotor activity, measured for 3 hours after administration, read-out: Minimum Effective Dose (mg/kg, p.o.)
Protocol: Five ddY male mice having a weight of 19 to 21 g were used for one group. A test compound and theophylline were orally administered to the mice and then the mice were out in an acrylic test cage (length 26 × width 45 × height 25 cm). The amount of locomotor activity of each mouse was measured with Automex II (manufactured by Columbus) for 3 hours after the administration. Test of significance between the control group and the test compound-administered group was performed by the Student's t-test, and enhancement of the locomotor activity was judged. Furthermore, the minimum effective dose showing a significant difference was determined.

calvaria = experiment: Inhibitory effect on bone absorption (PTH-stimulated calcium release from cultured calvaria); type: cell-based, mouse; settings: test compound 10^-4 M, PTH 10^-8 M; for inhibition at 100 µM: Mus musculus, bone absorption, 96 hours, read-out: Inhibition Rate (%); for Ca Concentration (mg/dl) (n = 6, mean +/- S.E.M.): culture collected after 96 hours; for bone absorption by PTH (result in words): Duncan's test
Protocol: The calvaria was excised from a newborn dd mouse (5 to 6 days old) under sterile conditions. The calvaria was washed with a modified Dulbecco phosphate buffer physiological saline solution containing neither calcium nor magnesium (a product of Gibco Oriental), and divided into two parts along the center suture.
The culture medium was renewed 48 hours after the start of culturing. For determining the amount of calcium liberated from the bone by the action of PTH (bone absorption), the calcium content in the culture as collected after 96 hours of culturing was measured. The calcium concentration in the culture was measured with Calcium C Test Wako (manufactured by Wako Pure Chemical Industries, Ltd.). The bone absorption rate was calculated using the following equation. The test of significance of the inhibitory effect on bone absorption was performed by the Duncan's multi-weight comparative test. Inhibition rate (%) = [(CP - CD )/(CP - C₀)] × 100 [formula] CD indicates the total calcium concentration in the culture treated with both the test compound and PTH; CP indicates the total calcium concentration in the culture treated with only PTH (control); and C₀ indicates the total calcium concentration in the culture containing neither the test compound nor PTH.

Which “MLD” value (dd male mice) does the source give for `CCCn1c(=O)c2nc(/C=C/c3ccc(Cl)cc3)[nH]c2n(CCC)c1=O` [Compound 5, 8-[(E)-4-Chlorostyryl]-1,3-dipropylxanthine] here?
The value was over 300 mg/kg.

How did the “MLD” value (dd male mice) turn out when `CCCn1c(=O)c2c(nc(/C=C/c3ccc(Cl)cc3)n2C)n(CCC)c1=O` [Compound 6, 8-[(E)-4-Chlorostyryl]-7-methyl-1,3-dipropylxanthine] was run?
Its value is over 300 mg/kg.

How did the pKi (Adenosine A₁ receptor) turn out when `CCCn1c(=O)c2c(nc(/C=C/c3ccc(OC)c(OC)c3)n2C)n(CCC)c1=O` [Compound 12, 8-[(E)-3,4-Dimethoxystyryl]-1,3-dipropyl-7-methylxanthine] was run?
The pKi was 5.51.

What about the inhibition at 100 µM (Adenosine A₁ receptor) of the same molecule?
The inhibition at 100 µM was 74%.

What about the inhibition at 10 µM (Adenosine A₁ receptor) of the same molecule?
The inhibition at 10 µM was 61%.

And the inhibition at 100 µM (Adenosine A₂ receptor)?
Its inhibition at 100 µM is 97%.

And the inhibition at 10 µM (Adenosine A₂ receptor)?
The inhibition at 10 µM was 96%.

What about the minimal effective dose (ddY male mice) of the same molecule?
The minimal effective dose was 0.63 mg/kg.

And the “MLD” value (dd male mice)?
The value was over 300 mg/kg.

How did the “MLD” value (dd male mice) turn out when `CCCn1c(=O)c2[nH]c(/C=C/c3cccs3)nc2n(CCC)c1=O` [Compound 17, 1,3-Dipropyl-8-[2-(E)-(2-thienyl)vinyl]xanthine] was run?
The value was over 300 mg/kg.

For `CCCn1c(=O)c2nc(/C=C/c3cc(OC)c(OC)c(OC)c3)[nH]c2n(CCC)c1=O` [Compound 13, 1,3-Dipropyl-8-[(E)-3,4,5-trimethoxystyryl]xanthine], which “MLD” value (dd male mice) is on record?
The value was over 300 mg/kg.

For `CCCn1c(=O)c2nc(/C=C/c3ccccc3)[nH]c2n(CCC)c1=O` [Compound 1, 1,3-Dipropyl-8-(E)-styrylxanthine], which “MLD” value (dd male mice) is on record?
Its value is over 300 mg/kg.

For `CCCn1c(=O)c2nc(/C=C/c3ccc(OC)cc3)[nH]c2n(CCC)c1=O` [Compound 9, 1,3-Dipropyl-8-[(E)-4-methoxystyryl]xanthine], which “MLD” value (dd male mice) is on record?
Its value is over 300 mg/kg.

`CCCn1c(=O)c2nc(/C=C/c3ccc(Cl)c(Cl)c3)[nH]c2n(CCC)c1=O` [Compound 7, 8-[(E)-3,4-Dichlorostyryl]-1,3-dipropylxanthine] was tested. Which “MLD” value (dd male mice) did it give?
Its value is over 300 mg/kg.

For `CCCn1c(=O)c2nc(/C(C)=C/c3ccccc3)[nH]c2n(CCC)c1=O` [Compound 3, 1,3-Dipropyl-8-[(E)-α-methylstyryl]xanthine], which “MLD” value (dd male mice) is on record?
Its value is over 300 mg/kg.

For `CCCn1c(=O)c2c(nc(/C(C)=C/c3ccccc3)n2C)n(CCC)c1=O` [Compound 4, 1,3-Dipropyl-7-methyl-8-[(E)-α-methylstyryl]xanthine], which “MLD” value (dd male mice) is on record?
Its value is over 300 mg/kg.

With `CCCn1c(=O)c2nc(/C=C/c3ccc(OC)c(OC)c3)[nH]c2n(CCC)c1=O` [Compound 11, 8-[(E)-3,4-Dimethoxystyryl]-1,3-dipropylxanthine] as the molecule, how does the “MLD” value (dd male mice) read?
Its value is over 300 mg/kg.

`CCCn1c(=O)c2c(nc(/C=C/c3cc(OC)c(OC)c(OC)c3)n2C)n(CCC)c1=O` [Compound 14, 1,3-Dipropyl-7-methyl-8-[(E)-3,4,5-trimethoxystyryl]xanthine] was tested. Which pKi (Adenosine A₁ receptor) did it give?
Its pKi is 4.19.

What about the inhibition at 100 µM (Adenosine A₁ receptor) of the same molecule?
Its inhibition at 100 µM is 50%.

What about the inhibition at 10 µM (Adenosine A₁ receptor) of the same molecule?
The inhibition at 10 µM was 30%.

What about the inhibition at 100 µM (calvaria) of the same molecule?
Its inhibition at 100 µM is 119%.

What about the “bone absorption inhibition rate compared with Comparative Compound X (result in words)” value (calvaria) of the same molecule?
The value was “significantly higher than that of Comparative Compound X”.

And the “Ca Concentration (mg/dl) (n = 6, mean +/- S.E.M.)” value (calvaria)?
The value was 7.66 ± 0.08 ++ mg/dl.

What about the “bone absorption by PTH (result in words)” value (calvaria) of the same molecule?
Its value is “significantly inhibited bone absorption by PTH”.

And the “Ratio of Affinity with Receptor (A2 /A1 )” value (shortened to “Ratio of Affinity”) (Adenosine A₂ receptor)?
Its value is 4600.

And the inhibition at 100 µM (Adenosine A₂ receptor)?
The inhibition at 100 µM was 92%.

What about the inhibition at 10 µM (Adenosine A₂ receptor) of the same molecule?
Its inhibition at 10 µM is 94%.

What about the minimal effective dose (ddY male mice) of the same molecule?
The minimal effective dose was 10 mg/kg.

What about the “MLD” value (dd male mice) of the same molecule?
Its value is over 300 mg/kg.

How did the pKi (Adenosine A₁ receptor) turn out when `C=CCn1c(=O)c2c(nc(/C=C/c3cc(OC)c(OC)c(OC)c3)n2C)n(CC=C)c1=O` [Compound 24, 1,3-Diallyl-7-methyl-8-[(E)-3,4,5-trimethoxystyryl]xanthine] was run?
Its pKi is under 4.00.

And the inhibition at 100 µM (Adenosine A₁ receptor)?
The inhibition at 100 µM was 31%.

What about the inhibition at 10 µM (Adenosine A₁ receptor) of the same molecule?
The inhibition at 10 µM was 31%.

And the inhibition at 100 µM (Adenosine A₂ receptor)?
The inhibition at 100 µM was 96%.

And the inhibition at 10 µM (Adenosine A₂ receptor)?
The inhibition at 10 µM was 93%.

Which “MLD” value (dd male mice) does the source give for `CCCn1c(=O)c2c(nc(/C=C/c3cccs3)n2C)n(CCC)c1=O` [Compound 18, 1,3-Dipropyl-7-methyl-8-[2-(E)-(2-thienyl)vinyl]xanthine] here?
Its value is over 300 mg/kg.

Which inhibition at 100 µM (calvaria) does the source give for `COc1cc(/C=C/c2nc3c(c(=O)n(C)c(=O)n3C)n2C)cc(OC)c1OC` [Comparative Compound X, 1,3,7-trimethyl-8-[(E)-3,4,5-trimethoxystyryl]xanthine, reference compound] here?
The inhibition at 100 µM was 55%.

And the “Ca Concentration (mg/dl) (n = 6, mean +/- S.E.M.)” value (calvaria)?
The value was 10.32 ± 0.13 mg/dL.

And the “bone absorption by PTH (result in words)” value (calvaria)?
The value was “significantly inhibited bone absorption by PTH”.

For `Cn1c(=O)c2[nH]cnc2n(C)c1=O` [Theophylline, theophylline, reference compound], which minimal effective dose (ddY male mice) is on record?
Its minimal effective dose is 20 mg/kg.

With `CCCn1c(=O)c2c(nc(/C=C/c3ccc(Cl)c(Cl)c3)n2C)n(CCC)c1=O` [Compound 8, 8-[(E)-3,4-Dichlorostyryl]-1,3-dipropyl-7-methylxanthine] as the molecule, how does the “MLD” value (dd male mice) read?
The value was over 300 mg/kg.

How did the pKi (Adenosine A₁ receptor) turn out when `CCCn1c(=O)c2c(nc(/C=C/c3ccc(OC)cc3)n2C)n(CCC)c1=O` [Compound 10, 1,3-Dipropyl-8-[(E)-4-methoxystyryl]-7-methylxanthine] was run?
The pKi was 5.70.

What about the inhibition at 100 µM (Adenosine A₁ receptor) of the same molecule?
Its inhibition at 100 µM is 86%.

What about the inhibition at 10 µM (Adenosine A₁ receptor) of the same molecule?
The inhibition at 10 µM was 65%.

What about the “Ratio of Affinity” value (Adenosine A₂ receptor) of the same molecule?
The value was 51.

What about the inhibition at 100 µM (Adenosine A₂ receptor) of the same molecule?
Its inhibition at 100 µM is 95%.

And the inhibition at 10 µM (Adenosine A₂ receptor)?
Its inhibition at 10 µM is 95%.

And the “MLD” value (dd male mice)?
Its value is over 300 mg/kg.

How did the “MLD” value (dd male mice) turn out when `CCCn1c(=O)c2[nH]c(/C=C/c3ccco3)nc2n(CCC)c1=O` [Compound 15, 1,3-Dipropyl-8-[2-(E)-(2-furyl)vinyl]xanthine] was run?
Its value is over 300 mg/kg.

With `CCCn1c(=O)c2c(nc(/C=C/c3ccccc3)n2C)n(CCC)c1=O` [Compound 2, 1,3-Dipropyl-7-methyl-8-(E)-styrylxanthine] as the molecule, how does the pKi (Adenosine A₁ receptor) read?
Its pKi is 5.85.

What about the inhibition at 100 µM (Adenosine A₁ receptor) of the same molecule?
Its inhibition at 100 µM is 82%.

And the inhibition at 10 µM (Adenosine A₁ receptor)?
Its inhibition at 10 µM is 64%.

And the “Ratio of Affinity” value (Adenosine A₂ receptor)?
The value was 52.

What about the inhibition at 100 µM (Adenosine A₂ receptor) of the same molecule?
Its inhibition at 100 µM is 96%.

What about the inhibition at 10 µM (Adenosine A₂ receptor) of the same molecule?
The inhibition at 10 µM was 95%.

What about the minimal effective dose (ddY male mice) of the same molecule?
Its minimal effective dose is 1.25 mg/kg.
